Reference: PubChem BioAssay (NCI)
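96-well plates; 48 h exposure; 5 concentrations. Endpoints by linear interpolation between flanking doses. Not reached: highest tested concentration assigned. TGI: total growth inhibition.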

Key:
Experiment in all cases: DTP human tumour cell line panel, 48 h
MALME-3M melanoma = tested on: MALME-3M melanoma
OVCAR-4 ovarian = tested on: OVCAR-4 ovarian
M14 melanoma = tested on: M14 melanoma
SK-MEL-5 melanoma = tested on: SK-MEL-5 melanoma
HL-60(TB) leukemia = tested on: HL-60(TB) leukemia
CCRF-CEM leukemia = tested on: CCRF-CEM leukemia
NCI-H522 lung = tested on: NCI-H522 lung
A549 NSCLC = tested on: A549 NSCLC
SF-295 CNS = tested on: SF-295 CNS
OVCAR-3 ovarian = tested on: OVCAR-3 ovarian
NCI-H226 lung = tested on: NCI-H226 lung
U251 CNS = tested on: U251 CNS
HOP-18 NSCLC = tested on: HOP-18 NSCLC
LXFL 529 NSCLC = tested on: LXFL 529 NSCLC
KM12 colon = tested on: KM12 colon
HT29 colon = tested on: HT29 colon
DMS 273 small cell lung = tested on: DMS 273 small cell lung
HOP-92 NSCLC = tested on: HOP-92 NSCLC
OVCAR-8 ovarian = tested on: OVCAR-8 ovarian
SNB-19 CNS = tested on: SNB-19 CNS
IGROV1 ovarian = tested on: IGROV1 ovarian
TK-10 renal = tested on: TK-10 renal
NCI-H460 lung = tested on: NCI-H460 lung
LOX IMVI melanoma = tested on: LOX IMVI melanoma
HOP-62 NSCLC = tested on: HOP-62 NSCLC
UACC-257 melanoma = tested on: UACC-257 melanoma
K-562 leukemia = tested on: K-562 leukemia
XF 498 CNS = tested on: XF 498 CNS
KM20L2 colon = tested on: KM20L2 colon
HCC-2998 colon = tested on: HCC-2998 colon
SK-MEL-2 melanoma = tested on: SK-MEL-2 melanoma
RPMI-8226 leukemia = tested on: RPMI-8226 leukemia
EKVX NSCLC = tested on: EKVX NSCLC
COLO 205 colon = tested on: COLO 205 colon
SNB-75 CNS = tested on: SNB-75 CNS
NCI-H23 lung = tested on: NCI-H23 lung
HCT-116 colon = tested on: HCT-116 colon
MOLT-4 leukemia = tested on: MOLT-4 leukemia
SNB-78 CNS = tested on: SNB-78 CNS
SK-MEL-28 melanoma = tested on: SK-MEL-28 melanoma
SF-539 CNS = tested on: SF-539 CNS
ACHN renal = tested on: ACHN renal
CAKI-1 renal = tested on: CAKI-1 renal
UACC-62 melanoma = tested on: UACC-62 melanoma
RXF 393 renal = tested on: RXF 393 renal
DMS 114 small cell lung = tested on: DMS 114 small cell lung
SF-268 CNS = tested on: SF-268 CNS
786-0 renal = tested on: 786-0 renal
DLD-1 colon = tested on: DLD-1 colon
SR leukemia = tested on: SR leukemia
UO-31 renal = tested on: UO-31 renal
HCT-15 colon = tested on: HCT-15 colon
OVCAR-5 ovarian = tested on: OVCAR-5 ovarian
M19-MEL melanoma = tested on: M19-MEL melanoma
A498 renal = tested on: A498 renal
SN12C renal = tested on: SN12C renal
SK-OV-3 ovarian = tested on: SK-OV-3 ovarian
SW-620 colon = tested on: SW-620 colon
RXF-631 renal = tested on: RXF-631 renal

## C(=C\c1ccc2ccccc2c1Nc1ccccc1)/c1ccccc1
MALME-3M melanoma
  TGI: > 78.8 µM
OVCAR-4 ovarian
  TGI: 23.2 µM
M14 melanoma
  TGI: 49.6 µM
SK-MEL-5 melanoma
  TGI: > 100 µM
HL-60(TB) leukemia
  TGI: > 100 µM
CCRF-CEM leukemia
  TGI: 30.5 µM
NCI-H522 lung
  TGI: > 100 µM
A549 NSCLC
  TGI: > 100 µM
SF-295 CNS
  TGI: > 100 µM
OVCAR-3 ovarian
  TGI: 60.4 µM
NCI-H226 lung
  TGI: > 100 µM
U251 CNS
  TGI: > 64.1 µM
HOP-18 NSCLC
  TGI: > 88.1 µM
LXFL 529 NSCLC
  TGI: > 100 µM
KM12 colon
  TGI: > 100 µM
HT29 colon
  TGI: > 100 µM
DMS 273 small cell lung
  TGI: > 100 µM
HOP-92 NSCLC
  TGI: 45.5 µM
OVCAR-8 ovarian
  TGI: 81.1 µM
SNB-19 CNS
  TGI: > 90.5 µM
IGROV1 ovarian
  TGI: > 100 µM
TK-10 renal
  TGI: > 100 µM
NCI-H460 lung
  TGI: > 59.2 µM
LOX IMVI melanoma
  TGI: > 100 µM
HOP-62 NSCLC
  TGI: 62.5 µM
UACC-257 melanoma
  TGI: > 100 µM
K-562 leukemia
  TGI: 26.1 µM
XF 498 CNS
  TGI: 40.6 µM
KM20L2 colon
  TGI: > 100 µM
HCC-2998 colon
  TGI: > 100 µM
SK-MEL-2 melanoma
  TGI: > 100 µM
RPMI-8226 leukemia
  TGI: > 72.5 µM
EKVX NSCLC
  TGI: > 100 µM
COLO 205 colon
  TGI: > 100 µM
SNB-75 CNS
  TGI: 39.9 µM
NCI-H23 lung
  TGI: > 87.6 µM
HCT-116 colon
  TGI: 46.4 µM
MOLT-4 leukemia
  TGI: 36.9 µM
SNB-78 CNS
  TGI: > 91.8 µM
SK-MEL-28 melanoma
  TGI: > 88.2 µM
SF-539 CNS
  TGI: > 100 µM
ACHN renal
  TGI: > 63.9 µM
CAKI-1 renal
  TGI: > 83.8 µM
UACC-62 melanoma
  TGI: > 100 µM
RXF 393 renal
  TGI: 37.6 µM
DMS 114 small cell lung
  TGI: > 100 µM
SF-268 CNS
  TGI: > 100 µM
786-0 renal
  TGI: 33.9 µM
DLD-1 colon
  TGI: > 100 µM
SR leukemia
  TGI: 33.6 µM
UO-31 renal
  TGI: > 72.2 µM
HCT-15 colon
  TGI: > 100 µM
OVCAR-5 ovarian
  TGI: > 100 µM
M19-MEL melanoma
  TGI: > 100 µM
A498 renal
  TGI: 47.6 µM
SN12C renal
  TGI: > 100 µM
SK-OV-3 ovarian
  TGI: > 83 µM
SW-620 colon
  TGI: > 100 µM

## COc1ccc(N2C(=O)[C@@H]3[C@@H]4CC(C)CC[C@@H]4c4c([nH]c5ccccc45)[C@@H]3C2=O)cc1 (some centres not stated)
MALME-3M melanoma
  TGI: > 100 µM
OVCAR-4 ovarian
  TGI: 37 µM
M14 melanoma
  TGI: > 74.9 µM
SK-MEL-5 melanoma
  TGI: > 100 µM
HL-60(TB) leukemia
  TGI: 89.4 µM
CCRF-CEM leukemia
  TGI: > 100 µM
NCI-H522 lung
  TGI: > 55 µM
A549 NSCLC
  TGI: > 68.3 µM
SF-295 CNS
  TGI: 45 µM
OVCAR-3 ovarian
  TGI: 37.2 µM
NCI-H226 lung
  TGI: 28.5 µM
U251 CNS
  TGI: 28.8 µM
HOP-18 NSCLC
  TGI: 14 µM
LXFL 529 NSCLC
  TGI: > 88 µM
KM12 colon
  TGI: > 100 µM
HT29 colon
  TGI: > 100 µM
DMS 273 small cell lung
  TGI: 44.3 µM
HOP-92 NSCLC
  TGI: 23 µM
OVCAR-8 ovarian
  TGI: 40.1 µM
SNB-19 CNS
  TGI: 29.6 µM
IGROV1 ovarian
  TGI: 49.7 µM
TK-10 renal
  TGI: 45.6 µM
NCI-H460 lung
  TGI: 59.3 µM
LOX IMVI melanoma
  TGI: > 87.6 µM
HOP-62 NSCLC
  TGI: 32.8 µM
UACC-257 melanoma
  TGI: > 100 µM
K-562 leukemia
  TGI: > 100 µM
XF 498 CNS
  TGI: 26 µM
KM20L2 colon
  TGI: > 100 µM
HCC-2998 colon
  TGI: > 100 µM
SK-MEL-2 melanoma
  TGI: 28.5 µM
EKVX NSCLC
  TGI: > 100 µM
COLO 205 colon
  TGI: > 55.1 µM
SNB-75 CNS
  TGI: 12.4 µM
NCI-H23 lung
  TGI: > 47.5 µM
HCT-116 colon
  TGI: 20 µM
MOLT-4 leukemia
  TGI: 61.3 µM
SNB-78 CNS
  TGI: 27.2 µM
SK-MEL-28 melanoma
  TGI: > 100 µM
SF-539 CNS
  TGI: 25.9 µM
ACHN renal
  TGI: 26.9 µM
CAKI-1 renal
  TGI: > 72.9 µM
UACC-62 melanoma
  TGI: 40.8 µM
DMS 114 small cell lung
  TGI: > 59.5 µM
SF-268 CNS
  TGI: 37.9 µM
786-0 renal
  TGI: 20.6 µM
DLD-1 colon
  TGI: > 58.4 µM
SR leukemia
  TGI: > 25.9 µM
UO-31 renal
  TGI: > 55.9 µM
HCT-15 colon
  TGI: > 50.2 µM
OVCAR-5 ovarian
  TGI: > 100 µM
M19-MEL melanoma
  TGI: > 100 µM
A498 renal
  TGI: 35.9 µM
SN12C renal
  TGI: 32.5 µM
SK-OV-3 ovarian
  TGI: 22.8 µM
SW-620 colon
  TGI: 47.7 µM

## O=C(CC1(O)C(=O)Nc2ccccc21)c1cccc(O)c1 (configuration not stated)
MALME-3M melanoma
  TGI: > 100 µM
OVCAR-4 ovarian
  TGI: > 100 µM
M14 melanoma
  TGI: > 100 µM
SK-MEL-5 melanoma
  TGI: > 100 µM
HL-60(TB) leukemia
  TGI: > 100 µM
NCI-H522 lung
  TGI: > 100 µM
A549 NSCLC
  TGI: > 100 µM
SF-295 CNS
  TGI: > 100 µM
OVCAR-3 ovarian
  TGI: > 100 µM
NCI-H226 lung
  TGI: > 100 µM
LXFL 529 NSCLC
  TGI: > 100 µM
HT29 colon
  TGI: > 100 µM
DMS 273 small cell lung
  TGI: > 100 µM
HOP-92 NSCLC
  TGI: > 100 µM
OVCAR-8 ovarian
  TGI: > 100 µM
SNB-19 CNS
  TGI: > 100 µM
IGROV1 ovarian
  TGI: > 100 µM
TK-10 renal
  TGI: > 100 µM
NCI-H460 lung
  TGI: > 100 µM
LOX IMVI melanoma
  TGI: > 100 µM
HOP-62 NSCLC
  TGI: > 100 µM
UACC-257 melanoma
  TGI: > 100 µM
K-562 leukemia
  TGI: > 100 µM
RXF-631 renal
  TGI: > 100 µM
XF 498 CNS
  TGI: > 100 µM
KM20L2 colon
  TGI: > 100 µM
SK-MEL-2 melanoma
  TGI: > 100 µM
RPMI-8226 leukemia
  TGI: > 100 µM
EKVX NSCLC
  TGI: > 100 µM
COLO 205 colon
  TGI: > 100 µM
SNB-75 CNS
  TGI: > 100 µM
NCI-H23 lung
  TGI: > 100 µM
HCT-116 colon
  TGI: > 100 µM
MOLT-4 leukemia
  TGI: > 100 µM
SNB-78 CNS
  TGI: > 100 µM
SK-MEL-28 melanoma
  TGI: > 100 µM
SF-539 CNS
  TGI: > 100 µM
ACHN renal
  TGI: > 100 µM
CAKI-1 renal
  TGI: > 100 µM
UACC-62 melanoma
  TGI: > 100 µM
RXF 393 renal
  TGI: > 100 µM
DMS 114 small cell lung
  TGI: > 100 µM
SF-268 CNS
  TGI: > 100 µM
786-0 renal
  TGI: > 100 µM
DLD-1 colon
  TGI: > 100 µM
UO-31 renal
  TGI: > 100 µM
HCT-15 colon
  TGI: > 100 µM
OVCAR-5 ovarian
  TGI: > 100 µM
M19-MEL melanoma
  TGI: > 100 µM
A498 renal
  TGI: > 100 µM
SN12C renal
  TGI: > 100 µM
SK-OV-3 ovarian
  TGI: > 100 µM
SW-620 colon
  TGI: > 100 µM
